Experimental data as given in patent US8642572B2, “Cytidine derivative-containing antitumor agent for continuous intravenous administration” (Taiho Pharmaceutical Co., Ltd., priority 2007, dated 2014).

Experiments:
[1] = tested on: patients of solid cancers; assay: Test in cancer patients, 4-hour continuous vs rapid intravenous administration, neurotoxicity occurrence and therapeutic effect; type: in vivo, human
Method: (§1) The above test is equivalent to the phase I clinical trial, which is performed mainly for evaluating safety of the tested drug and determining the recommended dose (RD) of the drug, which ensures safety of the drug without adverse effects in the phase II clinical trial carried out with respect to the target cancer. The test is carried out for patients of solid cancers (e.g., gastrointestinal cancers, head and neck cancer, and breast cancer) which cannot be cured by a standard therapeutic method or to which no effective method is applicable. When the test is performed, if possible, the therapeutic effect on the target tumor is assessed. In the following examples, the therapeutic effect on the target tumor was assessed in accordance with the RECIST method (see Journal of the National Cancer Institute, 2000, Vol. 92, No. 3, p. 205 to 216). The effect of ECyd on shrinkage of the tumor was confirmed generally from a target lesion (a lesion having a size equal to or greater than the measurable size depending on the slice width obtained through CT or similar means) and the non-target lesions (all lesions other than the target lesion). […] PD (progressive disease) refers to a state in which the sum of the longer diameters of target lesions was increased by 20% or more as compared with the minimum sum of the longer diameters recorded after start of the test, or a state in which clear exacerbation in the non-target lesions or a new lesion was observed. SD (stable disease) refers to a state in which the degree of tumor shrinkage cannot be evaluated as PR and which cannot be evaluated as PD, and in which the tumor progress has stopped and no exacerbation was observed. MR (minor response) refers to a case in which a certain tumor shrinkage degree of about 15% was maintained (although it was less than 30%), or in which a therapeutic effect corresponding to PR is temporarily observed.
A course including a 4-hour continuous intravenous administration once every three weeks out of a continuous four-week period at a dose of 1.30 mg/m^2 as reduced to ECyd for each administration was repeatedly performed. Also, a course including a rapid intravenous administration once every three weeks out of a continuous four-week period at a dose of 1.32 mg/m^2 as reduced to ECyd was repeatedly performed. In both cases, the neurotoxicity occurrence and the therapeutic effect by ECyd were investigated. In Example 2, selection of the patients and the method and ratings of evaluation were the same as employed in Example 1.

[2] = tested on: cancer patients; settings: rapid intravenous injection, once every three weeks or once a week for three weeks and one week rest; cited from earlier work
[3] = tested on: neural-crest-derived rat adrenal medulla chromaffin cells (PC12 strain); assay: Effect of ECyd contact schedule on growth inhibition of PC12 cells (Crystal Violet staining, constant AUC); type: cell-based; settings: for growth of PC12 cells after ECyd contact: constant AUC
Method: The effects of the ECyd contact schedule on growth inhibition of neural-crest-derived rat adrenal medulla chromaffin cells (PC12 strain) were investigated.
(§2) The experiment of Example 3 was performed at a constant AUC (product of contact time and ECyd concentration). Specifically, in each tested regimen, AUC was maintained at such a level that the ECyd concentration was adjusted to provide IC80 (0.08 μM) as a result of contact between ECyd and the PC12 cells for 100 hours. In each tested regimen, PC12 cells were seeded on a plate and treated with ECyd. Subsequently, the cell culture liquid was exchanged. The profile of cell growth thereafter was obtained through staining with Crystal Violet.

[4] = tested on: human lung tumor cells (A549 strain); assay: Effect of ECyd contact schedule on growth inhibition of A549 cells (Crystal Violet staining, constant AUC); type: cell-based
Method: The effects of the ECyd contact schedule on growth inhibition of human lung tumor cells (A549 strain) were investigated.
as §2, with “4” for “3”, “A549” for “PC12”

[5] = tested on: patients of solid cancers; assay: Phase I-equivalent test in cancer patients, once every three weeks: 24-hour continuous vs rapid intravenous administration, neurotoxicity occurrence and therapeutic effect (RECIST); type: in vivo, human
Method: A group of cancer patients was repeatedly subjected to a course including a 24-hour continuous intravenous administration once every three weeks at a dose of 2.80 to 8.56 mg/m^2 as reduced to ECyd for each administration. Another group of cancer patients was repeatedly subjected to a course including a rapid intravenous administration once every three weeks at a dose of 2.81 to 9.46 mg/m^2 as reduced to ECyd. In both cases, the neurotoxicity occurrence and the therapeutic effect by ECyd were investigated.
as §1

[6] = rapid intravenous administration once every three weeks, 6.31 mg/m^2

C#C[C@@]1(O)[C@@H](CO)O[C@@H](n2ccc(N)nc2=O)[C@@H]1O [ECyd, 1-(3-C-Ethynyl-β-D-ribopentofuranosyl)cytosine]
therapeutic efficacy (SD or higher) ([1]; 4-hour continuous intravenous administration, 1.30 mg/m^2): 66%
cases exhibiting peripheral neurotoxicity ([1]; 4-hour continuous intravenous administration, 1.30 mg/m^2, one of the three cases): 33%
therapeutic efficacy (SD or higher) ([1]; rapid intravenous administration, 1.32 mg/m^2): no therapeutic efficacy (SD or higher) was observed
cases exhibiting peripheral neurotoxicity ([1]; rapid intravenous administration, 1.32 mg/m^2, one of the three cases): 33%
dose-limiting toxicity [2]: peripheral neurotoxicity was observed as a dose-limiting toxicity
IC80 ([3]; Rattus norvegicus, PC-12, PC12 cells, contact for 100 hours): 80 nM
growth of PC12 cells after ECyd contact ([3]; contact time of 0.5 hours, day 6): virtually unrestored
growth of PC12 cells after ECyd contact ([3]; contact times of 25 and 100 hours): restored
IC80 ([4]; Homo sapiens, A549 cells, contact for 100 hours): 80 nM
growth of A549 cells after ECyd contact ([4]; contact times of 0.5 to 100 hours, constant AUC, day 6): virtually unrestored
peripheral neurotoxicity ([5]; 24-hour continuous intravenous administration once every three weeks, 2.80 mg/m^2 to 5.48 mg/m^2): no peripheral neurotoxicity was observed
therapeutic effect ([5]; rapid intravenous administration once every three weeks, 2.81 mg/m^2): no therapeutic effect was observed
cases exhibiting peripheral neurotoxicity ([5]; rapid intravenous administration once every three weeks, 2.81 mg/m^2, two of the three cases): 66%
cases exhibiting peripheral neurotoxicity [5, 6]: two of the three cases
therapeutic efficacy (SD or higher) [5, 6]: two of the three cases
